The values below are quoted from earlier work in PMC6376154 (International Journal for Parasitology: Drugs and Drug …, 2019).

Each structure is given as a SMILES string. Like-named read-outs stand apart in the source and are kept apart here.

The series concerns P. falciparum 3D7 asexual blood stage. Particulars: cited from earlier work.
[1] abbreviates: MMV Malaria Box data sheet, ref MMV data sheets.
Setting [2] is: MMV Malaria Box data sheet, ref MMV data sheets, read-out: EC50_nM.
Where [3] appears, read: source GNF, ref ChEMBL_NTD, read-out: CHEMBL EC50.
The mark [4] stands for this setting: ChEMBL-NTD value per source (GNF, GSK, StJude), several values in a cell follow the order of the sources, read-out: CHEMBL EC50.
Where [5] appears, read: MMV Malaria Box sheet, ref MMV data sheets.
The mark [6] stands for this setting: MMV Malaria Box data sheet (supplement mmc2.xls), ref MMV data sheet.
[7] abbreviates: MMV Malaria Box data sheet (supplement mmc2.xls), ref MMV data sheet, read-out: EC50_nM.
The mark [8] stands for this setting: value(s) per source (GSK, GNF, StJude), separated by semicolon, ref ChEMBL-NTD, read-out: CHEMBL EC50.
Setting [9] is: MMV Malaria Box sheet, ref MMV data sheets, read-out: EC50_nM.
Where [10] appears, read: source GSK, ref ChEMBL_NTD, read-out: CHEMBL EC50.

Turning to `CCCCCCOC(=O)C1=C(C)NC(=O)NC1c1ccccc1F` (centres unmarked) [MMV007686], the “percent_inh @ 5 uM” value under setting [1] is recorded as 95%. Besides, the EC50 was 0.106 µM under setting [2] and 6.76 µM under setting [3].
On to `COc1ccc(C(C)=O)cc1N1C(=O)C2C(C1=O)C1(c3ccccc3)C(=O)C2(c2ccccc2)C(c2ccc(C)cc2)=C1c1ccc(C)cc1` (centres unmarked) [MMV007695], for which the “percent_inh @ 5 uM” value under setting [1] is listed as 96%. Further, the EC50 is, setting by setting: under setting [2], 0.179 µM; under setting [3], 2.46 µM.
Turning to `CCCCc1c(CCC)c(=N)c2ccccc2n1C` [MMV007764], the EC50 under setting [4] is 0.311 µM.
On to `CCOc1ccccc1NC(=O)CN1CCN(C(=O)c2ccco2)CC1` [MMV007791], for which the “percent_inh @ 5 uM” value under setting [5] is 83%. For the same compound, under setting [3], the EC50 is 5.46 µM.
Take `COc1nc(Nc2ccc(C(C)C)cc2)nc(OC)n1` [MMV007808]: the “percent_inh @ 5 uM” value under setting [6] is reported as 88%. The EC50 was 1.14 µM under setting [7] and 0.677 µM under setting [8].
For `COc1ccc2c(c1)OC(O)(C(F)(F)C(F)(F)F)CC2=O` (centres unmarked) [MMV007839], the EC50 is 0.283 µM under setting [2] and 0.442 µM under setting [3].
In the case of `COc1ccc2nc(C)cc(Nc3ccc(Cl)cc3)c2c1` [MMV007875], the “percent_inh @ 2 uM” value under setting [5] is given as 95%. Also, the EC50 by setting is: under setting [9], 2 µM; under setting [3], 1.23 µM; under setting [10], 0.946 µM.
As to `CCCCN(CCCC)S(=O)(=O)c1ccc(NC(=O)c2ccco2)cc1` [MMV007881], under setting [5], the “percent_inh @ 5 uM” value is 78%. Moreover, the EC50 under setting [3] was 1.43 µM.
As to `CCCCOc1ccc(C(=O)Nc2cc(C)on2)cc1` [MMV007906], the “percent_inh @ 5 uM” value under setting [6] is given as 73%. In addition, the EC50 under setting [8] is 3.16 µM.
As to `Cc1ccc(Nc2nc(-c3ccccn3)cs2)cc1` [MMV007907], the “percent_inh @ 5 uM” value under setting [1] is listed as 79%. Besides, the EC50 was 0.35 µM under setting [2] and 0.407 µM under setting [3].
On to `O=c1nc(C=Cc2ccc(Cl)cc2)oc2ccccc12` [MMV007977], for which the “percent_inh @ 5 uM” value under setting [6] is 76%. Moreover, the EC50 under setting [7] was 0.995 µM.
On to `CCOc1ccc(CCNC(=O)c2cccs2)cc1OCC` [MMV007978], for which the “percent_inh @ 5 uM” value under setting [5] was 95%. Under setting [3], the EC50 is 0.89 µM.
With `CN1CCN(c2c3c(c(C#N)c4nc5ccccc5n24)CCC3)CC1` [MMV008127], under setting [6], the “percent_inh @ 2 uM” value is on record as 42%. Besides, the EC50 under setting [7] was 4 µM and the EC50 under setting [8] was 1.18 µM.
Consider `O=C(O)C1Cc2c([nH]c3ccccc23)C(c2ccc(Cl)cc2Cl)N1` (centres unmarked) [MMV008138], for which the EC50 was 0.35 µM under setting [2], 1.02 µM under setting [3] and 0.954 µM under setting [10].
With `Cc1c(C)n(Cc2ccc(F)cc2)c2ccc(C(=O)NCc3ccco3)cc12` [MMV008149], the “percent_inh @ 5 uM” value under setting [6] is on record as 52%. Moreover, under setting [8], the EC50 was 0.0782 µM.
In the case of `CN1C=C(c2ccc3ccccc3n2)C(c2c[nH]c3ccccc23)c2ccccc21` (centres unmarked) [MMV008160], the EC50 under setting [4] was 1.14 µM.
Regarding `COc1cc(OC)cc(N2C(=O)N(Cc3ccc(C(C)(C)C)cc3)c3ccccc3S2(=O)=O)c1` [MMV008173], the “percent_inh @ 5 uM” value under setting [5] is 97%. The EC50 was 1.43 µM under setting [9] and 3.75 µM under setting [3].
As to `Oc1c2c(nc3cc(-c4ccccc4)nn13)CCCC2` [MMV008270], the “percent_inh @ 5 uM” value under setting [6] is reported as 77%. Under setting [8], the EC50 is 1.93 µM.
For `CCOC(=O)c1cnc2c(C)cc(C)cc2c1Nc1ccc(OC)c(OC)c1` [MMV008294], the “percent_inh @ 5 uM” value under setting [1] is recorded as 96%. The EC50 by setting is: under setting [2], 0.232 µM; under setting [3], 1.78 µM.
As to `CCCc1c(CC)c(=N)c2ccccc2n1C` [MMV008416], under setting [1], the “percent_inh @ 5 uM” value is 69%. Also, the EC50 under setting [2] was 0.242 µM and the EC50 under setting [3] is 0.762 µM.
With `COc1ccc(C2C(C(=O)Nc3cccc(OC)c3)c3ccccc3C(=O)N2C2CCCCC2)cc1` (centres unmarked) [MMV008455], the “percent_inh @ 5 uM” value under setting [5] is recorded as 97%. For the same compound, the EC50 reads like this: under setting [9], 1.18 µM; under setting [3], 1.11 µM.
Consider `CCN1CCN(c2c(C(=O)c3ccccc3)cnc3cc(OC)c(OC)cc23)CC1` [MMV008474], for which the “percent_inh @ 5 uM” value under setting [5] is 59%. Under setting [3], the EC50 was 3.02 µM.
For `CCCn1c(=N)c(C(=O)NC2CCCCC2)cc2c(=O)n3cccc(C)c3nc21` [MMV008829], the EC50 under setting [4] was 0.46 µM.
For the compound `CCOc1cc2c(cc1OCC)C(c1cc(OC)c(O)cc1Cl)NCC2` (centres unmarked) [MMV008956], under setting [1], the “percent_inh @ 5 uM” value is 98%. The EC50 runs as follows: under setting [2], 0.37 µM; under setting [3], 0.362 µM; under setting [10], 0.748 µM.
Take `O=C(CCc1ccccc1)c1ccccc1OCC(O)CN1CCCCC1` (centres unmarked) [MMV009015]: under setting [4], the EC50 was 0.881 µM.
On to `CCN(CC)c1ccc(NC(=O)c2cccs2)cc1` [MMV009060], for which the “percent_inh @ 5 uM” value under setting [6] was 88%. Besides, the EC50 under setting [8] is 0.414 µM.
On to `OC(CNC1CCCCC1)Cn1c2ccccc2c2ccccc21` (centres unmarked) [MMV009063], for which the “percent_inh @ 5 uM” value under setting [1] is given as 93%. Further, the EC50 runs as follows: under setting [2], 0.293 µM; under setting [3], 0.483 µM; under setting [10], 0.991 µM.
Consider `O=C1c2ccc3c4c(ccc(c24)C(=O)N1CCCCO)C(=O)N(CCCCO)C3=O` [MMV009085], for which the EC50 under setting [4] was 0.354 µM.
`CCN(CC)S(=O)(=O)c1ccc(-c2csc(Nc3ccc(C)c(C)c3)n2)cc1` [MMV009108]: the “percent_inh @ 5 uM” value under setting [6] is on record as 97%. Further, the EC50 by setting is: under setting [7], 0.641 µM; under setting [8], 2.1 µM.
`CC1CCN(Cc2c(O)ccc3cc(-c4nc5ccccc5s4)c(=O)oc23)CC1` [MMV009127]: the “percent_inh @ 5 uM” value under setting [5] was 91%. Further, the EC50 under setting [9] was 1.13 µM and the EC50 under setting [3] is 12.5 µM.
On to `Cc1cc(Nc2ccc3ccccc3c2)n2ncnc2n1` [MMV011099], for which the EC50 is 0.242 µM under setting [2] and 0.173 µM under setting [10].
Take `Cc1cc(Nc2ccc(Cl)cc2)n2nc(C(F)(F)F)nc2n1` [MMV011256]: the EC50 is 0.212 µM under setting [2] and 0.117 µM under setting [10].
Regarding `Cc1cc(C)cc(Nc2cc(C)nc3nc(C(F)(F)F)nn23)c1` [MMV011259], under setting [2], the EC50 is 0.0857 µM.
For the compound `CC(C)(C)c1ccc(C2CC3=Nc4ccccc4N(C(=O)c4ccccc4Cl)C(c4ccc(F)cc4)C3=C(O)C2)cc1` (centres unmarked) [MMV011436], the EC50 under setting [4] was 2.63 µM.
In the case of `COC(=O)c1ccc(C2C3=C(O)CC(c4ccc(F)cc4)CC3=Nc3ccccc3N2C(=O)c2ccccc2)cc1` (centres unmarked) [MMV011438], the EC50 under setting [4] is 0.332 µM.
Consider `COc1ccc(C(=O)Nc2nonc2-c2ccc(OC)c(OC)c2)cc1Cl` [MMV011567], for which the “percent_inh @ 5 uM” value under setting [1] is given as 92%. Moreover, the EC50 was 0.516 µM under setting [2], 1.79 µM under setting [3] and 0.675 µM under setting [10].
Consider `CCOC(=O)C1CCN(C(=O)CN2C(=O)c3ccccc3C2c2c[nH]c3ccccc23)CC1` (centres unmarked) [MMV011576], for which the “percent_inh @ 5 uM” value under setting [5] was 98%. Further, the EC50 under setting [9] is 1.18 µM and the EC50 under setting [3] was 0.519 µM.
In the case of `Oc1ccccc1CN1CCN(C(c2ccccc2)c2ccccc2)CC1` [MMV011795], under setting [6], the “percent_inh @ 5 uM” value is given as 97%. Moreover, the EC50 under setting [7] was 0.611 µM.
Take `Oc1ccc2ccccc2c1CNc1nc2ccccc2[nH]1` [MMV011832]: the EC50 under setting [4] is 0.652 µM.
For `Nc1ccc(-c2nc3cc(Oc4ccc(Oc5ccc6[nH]c(-c7ccc(N)cc7)nc6c5)cc4)ccc3[nH]2)cc1` [MMV011895], the EC50 under setting [4] is 0.288 µM.
In the case of `COc1cccc(Nc2nc(NCCO)c3ccccc3n2)c1` [MMV011944], the EC50 under setting [7] was 0.854 µM.
For `Cc1cc(NC(=O)c2ccc(-c3ccccc3)cc2)no1` [MMV018984], the “percent_inh @ 5 uM” value under setting [6] is given as 95%. Besides, the EC50 under setting [7] is 0.693 µM and the EC50 under setting [8] is 1.02 µM.
